Here are results for 79 compounds from the METLIN SMRT retention time set (Domingo-Almenara et al. 2019).

A short description of this data set: gradient 5% acetonitrile 3 min, to 50% in 2 min, to 85% in 15 min, held 3 min, 100 µL/min. As to conditions: column: Zorbax Extend-C18 2.1 x 50 mm; eluents: water / acetonitrile, 0.1% formic acid. The method in brief:
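The system's dead and dwell volumes were 40 μL and 900 μL, with a Zorbax Extend-C18 column (2.1 × 50 mm, 1.8 μm) run at 100 μL/min in water and acetonitrile containing 0.1% formic acid each. Pure standards were analyzed in mixtures of ~100 molecules by HPLC–quadrupole time-of-flight mass spectrometry in positive and negative ionization mode. Retention time was assigned from computationally picked, manually inspected adduct peaks.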
For `COc1cccc(NC(=O)Cn2c(N3CCOCC3)nc(C)cc2=O)c1`, the RP-LC retention time amounted to 652 s.

In the case of `Cc1ccc(-c2cc(NC(=O)Cc3ccsc3)on2)s1`, the RP-LC retention time turned out to be 966 s.

Regarding `Cc1ccc(NC(=O)CN2CCc3[nH]c4c(C)c(C)ccc4c(=O)c3C2)cc1`, the RP-LC retention time came to 626 s.

In the case of `Cc1noc(-c2ccc(-n3ncc(C(=O)N4CCCC4)c3C)nc2)n1`, the RP-LC retention time is 699 s.

`CCC(C)NC(=O)Cn1cccc(-c2nc(-c3ccc(OC)c(OC)c3)no2)c1=O` (centres undefined) came in with an RP-LC retention time of 714 s.

On to `Cc1cc(C)c(S(=O)(=O)N2CCCCC2C(=O)N2CCN(c3ccccc3F)CC2)c(C)c1` (centres undefined), for which the RP-LC retention time came out at 1250 s.

As for `CCOc1ccc(NC(=O)c2noc3c2CCCC3)cc1`, the RP-LC retention time came out at 958 s.

For the compound `O=C(O)c1cn(-c2ccccc2F)nn1`, the RP-LC retention time was 650 s.

`Cc1cc(C)c(S(=O)(=O)N2CCCC(C(=O)Nc3ccc4c(c3)OCO4)C2)c(C)c1` (centres undefined) gave an RP-LC retention time of 974 s.

`COc1ccc(C(=O)Nc2ccc(CC(=O)N3CCOCC3)cc2)c(OC)c1OC` returned an RP-LC retention time of 679 s.

As to `CN(C)C(CNC(=O)c1cc(=O)c2ccccc2o1)c1cn(C)c2ccccc12` (centres undefined), the RP-LC retention time worked out at 554 s.

`Cc1nc(-c2ccc3c(c2)n(CC(=O)Nc2ccc(S(N)(=O)=O)cc2)c(=O)n3C(C)C)no1` came in with an RP-LC retention time of 707 s.

`Cc1ccc(CNC(=O)CN2C(=O)C3CCCCN3c3ccc(C(=O)N4CCCC4)cc32)o1` (centres undefined) registered an RP-LC retention time of 664 s.

For `Cc1cc(S(=O)(=O)N2CC=C(c3cn(C)c4ncccc34)CC2)ccc1F`, the RP-LC retention time came out at 1050 s.

The compound `CCOc1ccc(N2CCCCn3c2nc2c3c(=O)n(CC(C)C)c(=O)n2C)cc1` gave an RP-LC retention time of 1110 s.

`Cc1nn(-c2nc3ccccc3[nH]2)c2c1C(=O)CC(c1ccc(C(C)C)cc1)C2` (centres undefined) displayed an RP-LC retention time of 1230 s.

The compound `N#Cc1ccc(S(=O)(=O)N2CCOCCNC(=O)[C@H]3CCCC[C@H]32)cc1` displayed an RP-LC retention time of 747 s.

In turn, `CN1C(=O)c2cc(S(=O)(=O)Nc3cc(F)cc(F)c3)ccc2Oc2cccnc21` yielded an RP-LC retention time of 936 s.

`Cn1nc(-c2nnc(-c3ccc(F)cc3)o2)c2c1CCN(S(=O)(=O)c1cccc(C#N)c1)C2`: the RP-LC retention time was 891 s.

With `Cc1ccc(CNS(=O)(=O)c2cc3n(c2)CCCNC3=O)cc1C`, the RP-LC retention time was 739 s.

For the compound `CNC(=O)[C@@H]1CN(C(=O)C2CC=CCC2)C[C@H]1c1nc(C)no1` (some centres undefined), the RP-LC retention time stood at 642 s.

For `Cc1ccc(S(=O)(=O)c2cnc(N3CCN(c4cccc(Cl)c4)CC3)nc2N)cc1`, the RP-LC retention time amounted to 1190 s.

In turn, `Cc1ccc(NC(=O)N2CCc3cn(C)c4cccc(c34)C2)cc1` came in with an RP-LC retention time of 629 s.

With `COC(=O)c1cn(Cc2ccc(OC)c(F)c2)nc1S(=O)(=O)N1CCCCC1`, the RP-LC retention time stood at 945 s.

Compound `c1ccc(CC2CCN(Cc3nc(-c4ccc(N5CCCCC5)nc4)no3)CC2)cc1` showed an RP-LC retention time of 802 s.

With `CCc1ccccc1NC(=O)C1CCN(S(=O)(=O)c2ccc3c(c2)NC(=O)C(CC)O3)CC1` (centres undefined), the RP-LC retention time was found to be 893 s.

`CCSc1nc2ccc(NS(=O)(=O)Cc3ccc(Cl)cc3)cc2s1` had an RP-LC retention time of 1080 s.

In turn, `CCOC(=O)c1ccc(NC(=O)c2ccccc2-c2ccccc2C(=O)O)cc1` displayed an RP-LC retention time of 842 s.

`CCOc1ccc(NC(=O)N2CCC3(CC2)NC(=O)c2cc(Cl)ccc2N3C)cc1` came in with an RP-LC retention time of 858 s.

In turn, `Cc1ccc(S(=O)(=O)N2CCC3(CC2)c2nccn2CCN3C)cc1F` showed an RP-LC retention time of 654 s.

`O=C(NC1CC1)c1ccccc1OCC1CCCN(Cc2cn[nH]c2-c2cccs2)C1` (centres undefined): the RP-LC retention time was found to be 615 s.

Compound `COc1cccc(-c2csc(-c3nnn(-c4cccc(OC)c4)c3N)n2)c1` yielded an RP-LC retention time of 1110 s.

`COc1ccc(C(=O)CC2(O)C(=O)Nc3ccc(C)cc32)cc1OC` (centres undefined) returned an RP-LC retention time of 670 s.

`O=C1CCN([C@@H]2O[C@H](CO)[C@@H](O)[C@H]2O)C(=O)N1`: the RP-LC retention time was 933 s.

Compound `CC1(C)COc2ccc(NC(=O)NCc3cccc4ccccc34)cc2NC1=O` yielded an RP-LC retention time of 602 s.

The compound `CCCOc1nc2ccccc2nc1N1CCCC(C(=O)Nc2ccc(Cl)cc2)C1` (centres undefined) returned an RP-LC retention time of 1210 s.

`CCc1ccc2c(c1)-c1ccccc1S(=O)(=O)N2CC(=O)NCCN1CCOCC1`: the RP-LC retention time stood at 671 s.

`Cc1noc(-c2cc(=O)n(CC(=O)NCc3ccccc3F)c3ccccc23)n1` displayed an RP-LC retention time of 826 s.

`CCOc1cccc(CNc2ncc(C(=O)O)c(C)n2)c1` came in with an RP-LC retention time of 758 s.

The compound `Cn1c(C(=O)NCc2ccccc2Cl)cc2sc(Cl)cc21` displayed an RP-LC retention time of 1260 s.

Consider `NC(=O)C1=C(N)c2ccccc2C1c1ccccc1` (centres undefined), for which the RP-LC retention time was found to be 822 s.

The compound `CCn1cc(S(=O)(=O)NCCn2c(C)cnc2-c2ccccc2)cn1` had an RP-LC retention time of 560 s.

With `Cc1ccc(C(=O)N2C[C@@H]3C[C@H]2C[C@@H]3NS(C)(=O)=O)s1`, the RP-LC retention time came out at 595 s.

For the compound `COc1ccc(CN2C=C(C(=O)OCc3c(C)noc3C)C(C)=NS2(=O)=O)cc1`, the RP-LC retention time turned out to be 934 s.

On to `O=C(CCCN1C(=O)c2cccc3cccc(c23)C1=O)NC1CCCCC1`, for which the RP-LC retention time came to 812 s.

For the compound `CC1=C(c2ccc(C)cc2)S(=O)(=O)N=C1N1CCCN(C(=O)NCc2ccco2)CC1`, the RP-LC retention time came out at 803 s.

As to `Nc1nc(N2CCOCC2)ncc1C(=O)NCc1ccccc1F`, the RP-LC retention time is 626 s.

Compound `CN(C)CCN(Cc1ccccc1)C(=O)Cn1c(=O)oc2ccccc21` yielded an RP-LC retention time of 645 s.

In the case of `Cc1nnc(-c2ccc3ccn(CC(=O)Nc4cccc(C)c4C)c3c2)o1`, the RP-LC retention time turned out to be 798 s.

As to `COc1ccc(OC)c(NC(=O)C2CCCN(c3ncnc4c3nc3n4CCCCC3)C2)c1` (centres undefined), the RP-LC retention time was 815 s.

As for `CCCN1C(=O)c2cc(S(=O)(=O)Nc3cccc(Cl)c3)ccc2Oc2cccnc21`, the RP-LC retention time was determined as 1120 s.

Compound `Cc1ccc(NC(=O)Cn2c(C)nc3cc4c(cc32)OCCO4)c(C)c1` displayed an RP-LC retention time of 668 s.

Compound `Cc1cccc(NC(=O)c2ccc3nn(CC(=O)Nc4ccc(C)c(F)c4)c(=O)n3c2)c1` showed an RP-LC retention time of 810 s.

In turn, `CN1CCCn2nc(C3CCN(C(=O)CC(C)(C)C)CC3)cc2C1=O` yielded an RP-LC retention time of 654 s.

On to `COc1ccc(OC)c(CCN2CC(=O)N(c3ccc(C)c(Cl)c3)[C@@H]3CS(=O)(=O)C[C@@H]32)c1`, for which the RP-LC retention time came to 921 s.

The compound `CN(CC1CCOC1)C(=O)NCc1ccc(F)cc1` (centres undefined) gave an RP-LC retention time of 669 s.

`COc1cccc2c(Nc3cccc(C)c3)cc(C(=O)N3CCSCC3)nc12`: the RP-LC retention time came out at 696 s.

`COc1ccc(-c2nc(-c3ccc(NS(C)(=O)=O)cc3)no2)c(OC)c1` yielded an RP-LC retention time of 885 s.

As for `Clc1ccc2nc(Nc3ncccn3)nc(-c3ccccc3)c2c1`, the RP-LC retention time worked out at 747 s.

`Cc1ccc(-c2nc(C)cc(OCC(=O)Nc3ccccc3C)n2)cc1`: the RP-LC retention time turned out to be 1030 s.

Compound `CCN1CCN(CCCNS(=O)(=O)c2cc(-c3nc(C)c(C)s3)sc2C)CC1` displayed an RP-LC retention time of 608 s.

As to `Cc1ccc(-n2c(Cc3cccn3C)nnc2SCC(=O)NCC2CCCO2)cc1` (centres undefined), the RP-LC retention time was 744 s.

As for `Cc1ccc2nc(NC(=O)CSc3nc4c(c(=O)n3-c3ccccc3)SCC4)sc2c1`, the RP-LC retention time came to 922 s.

The compound `O=c1cc(CSc2nnc(-c3ccc4c(c3)OCO4)o2)nc2sccn12` had an RP-LC retention time of 727 s.

With `Cc1ccc(S(=O)(=O)N(C)CC2CCOCC2)c(C)c1`, the RP-LC retention time is 896 s.

With `Cc1nc(-c2ccc(F)cc2)sc1C(=O)NC(C)C`, the RP-LC retention time was 890 s.

The compound `CC(C)c1ccc(S(=O)(=O)N2CCC(c3cc(N)on3)CC2)cc1` displayed an RP-LC retention time of 902 s.

`Cc1ccc(C(=O)NC2(c3nc(-c4ccccc4)no3)CCCCC2)cc1C`: the RP-LC retention time came out at 1250 s.

`O=C1C2C3C=CC(C3)C2C(=O)N1CCN1CCN(Cc2ccc([N+](=O)[O-])cc2)CC1` (centres undefined) yielded an RP-LC retention time of 563 s.

Compound `CC(C)Cn1c(=O)c2cc(C(=O)NCc3cccs3)nn2c2ccccc21` displayed an RP-LC retention time of 995 s.

As to `CN1C(=O)C(C)(C(=O)Nc2ccccc2)Oc2cccnc21` (centres undefined), the RP-LC retention time was 788 s.

For the compound `Cc1nc(COc2ccccc2)sc1C(=O)N1CCC(C(N)=O)CC1`, the RP-LC retention time came to 925 s.

In turn, `O=c1ccn(-c2ccc(Cl)cc2)nc1-c1nc(-c2ccccc2)no1` came in with an RP-LC retention time of 938 s.

`Cc1ccc(-c2csc(NC(=O)Cc3csc(-c4ccccc4)n3)n2)cc1C`: the RP-LC retention time is 1230 s.

On to `Cc1cc(NC(=O)Cn2nc(C(=O)N3CCOCC3)c3ccccc32)ccc1Br`, for which the RP-LC retention time came to 862 s.

The compound `CCc1ccc(Nc2nc(C(=O)NCCC(C)C)nc3ccccc23)cc1` gave an RP-LC retention time of 964 s.

For the compound `Cc1ccc(Cn2c(N3CCCC(C(=O)Nc4ccc(C)c(F)c4)C3)nc3ccsc3c2=O)cc1` (centres undefined), the RP-LC retention time was 1170 s.

`CCOC(=O)C1=C(C)NC2=C(C(=O)C(C(=O)OC)C(C)C2)C1c1cccc(Cl)c1` (centres undefined) displayed an RP-LC retention time of 965 s.

The compound `Cc1ccc(N2CC(NC(=O)NCc3cccs3)CC2=O)cc1C` (centres undefined) showed an RP-LC retention time of 704 s.
